# According to PubChem BioAssay AID1259332 (Broad Institute, 2017):
# Active and inactive are the calls of the source. How the calls were made is not given here.
# System: B cell line, CD40 signaling inhibition reporter
# Test: inhibitors of CD40 signaling, dose response, B cell lineage (AID 1259332);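 further: cells stimulated with CD40 ligand tCD40L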;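 on activity change, negative = inhibition: 0% = neutral control wells and -100% = positive control wells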
# Conditions: not given
row,Structure (SMILES),AC50
1,COc1cccc(S(=O)(=O)N(C)C[C@@H]2OCc3ccccc3-c3c(n(C)c4ccccc34)C(=O)N([C@H](C)CO)C[C@H]2C)c1,> 20 µM (inactive)
2,Cc1ccsc1C(=O)OCC(=O)c1cc(C)n(CC2CCCO2)c1C (centres undefined),0.124 µM
3,CC[C@H]1CN2CCc3cc(OC)c(OC)cc3C2C[C@@H]1CC1NCCc2cc(OC)c(OC)cc21 (some centres undefined),0.0205 µM
4,O=C(C[C@@H]1CC[C@H]2[C@@H](COC[C@@H](O)CN2Cc2cc(F)ccc2F)O1)NCc1ccc(Oc2ccccc2)cc1,> 20 µM (inactive)
5,C[C@@H]1CN([C@H](C)CO)C(=O)c2ccccc2-c2ccccc2CO[C@@H]1CN(C)C(=O)c1cc(Cl)cc(Cl)c1,7.99 µM
6,CC(C)(C)c1cc(C=C(C#N)C#N)cc(C(C)(C)C)c1O,0.524 µM
7,CCC(C)(O)C(=O)OC1C(=O)OC2CC3C(C)=CC(=O)C(O)C3(C)C3C4(O)OCC23C1C(C)C4O (centres undefined),0.0299 µM
8,C[C@H]1CN([C@@H](C)CO)C(=O)c2c(c3ccccc3n2C)-c2ccccc2CO[C@H]1CN(C)C(=O)Nc1cccc(C(F)(F)F)c1,8.34 µM
9,Cc1ccc(S(=O)(=O)N[C@@H](Cc2ccccc2)C(=O)CCl)cc1,2.99 µM
10,CC(C)=CCc1c2c(c3occ(-c4ccc(O)c(O)c4)c(=O)c3c1O)C=CC(C)(C)O2,4.31 µM
11,Cn1cnc(S(=O)(=O)N2C[C@@H]3N[C@H](C2)C3c2ccc(-c3ccccc3F)cc2)c1 (some centres undefined),11 µM
12,O=C1CCCCC1Sc1nnc(-c2ccc3c(c2)OCO3)o1 (centres undefined),0.951 µM
13,C[C@@H]1CN([C@H](C)CO)C(=O)c2cc(NS(=O)(=O)c3cccs3)ccc2O[C@@H](C)CCCCO[C@H]1CN(C)Cc1ccc(Cl)c(Cl)c1,> 20 µM (inactive)
14,COc1ccccc1NC(c1cccnc1)c1ccc2cccnc2c1O (centres undefined),8.25 µM
15,CC(C)CCCCCCCCCCCCC(=O)NCC(=O)NC1C(O)C(O)C(Nc2ncnc3nc[nH]c23)OC1C(O)CO (centres undefined),0.0128 µM
16,Cc1ccc(-c2ccccc2[C@H]2[C@@H](C#N)N(c3ncc(-c4ccccc4)s3)[C@@H]2CO)cc1,> 20 µM (inactive)

row,Structure (SMILES),AC50
1,CC[C@@]1(O)C(=O)OCc2c1cc1n(c2=O)Cc2cc3ccccc3nc2-1,0.961 µM
2,O=C(COc1cccnc1[N+](=O)[O-])c1ccc(Cl)s1,3.2 µM
3,CS(=O)(=O)c1ccc(C(=O)OCC(=O)NC(=O)C2CCCCC2)cc1[N+](=O)[O-],> 20 µM (inactive)
4,C[C@@H]1CN([C@H](C)CO)C(=O)c2ccccc2-c2ccccc2CO[C@@H]1CN(C)Cc1ccccc1C(F)(F)F,9.99 µM
5,O=C(c1ccc(F)cc1)N1C[C@@H]2N[C@H](C1)C2c1ccc(/C=C/c2ccccc2)cc1 (some centres undefined),4.68 µM
6,C[C@@H]1CN([C@@H](C)CO)C(=O)c2ccccc2-c2ccccc2CO[C@@H]1CN(C)Cc1ccc(Oc2ccccc2)cc1,> 20 µM (inactive)
7,CC(C)[C@H](N)C(=O)N[C@H]1CCC2C3CC=C4C[C@@H](O)CC[C@]4(C)C3CC[C@@]21C (some centres undefined),2.97 µM
8,COc1ccc2c3c([nH]c2c1)[C@H](CO)N(C(=O)Nc1ccc(F)cc1)CC31CN(Cc2cc(F)ccc2F)C1,> 20 µM (inactive)
9,N#Cc1cccc(-c2ccc([C@@H]3[C@@H]4CN(S(=O)(=O)c5ccc(-c6ccccc6)cc5)C[C@H]3N4)cc2)c1,> 20 µM (inactive)
10,CC1OC(OC2C(O)CC(OC3C(O)CC(OC4CCC5(C)C(CCC6C5CCC5(C)C(C7=CC(=O)OC7)C(O)CC65O)C4)OC3C)OC2C)CC(O)C1O (centres undefined),0.943 µM
11,C[C@@H]1CN([C@@H](C)CO)C(=O)c2c(c3ccccc3n2C)-c2ccccc2CO[C@H]1CN(C)Cc1cccc(C(=O)Nc2ccccc2N)c1,> 20 µM (inactive)
12,C[C@@H]1CN([C@@H](C)CO)C(=O)c2ccccc2-c2ccccc2CO[C@H]1CN(C)Cc1ccccc1C(F)(F)F,8.01 µM
13,C[C@H]1CN([C@@H](C)CO)C(=O)c2c(c3ccccc3n2C)-c2ccccc2CO[C@@H]1CN(C)S(=O)(=O)c1ccc([N+](=O)[O-])cc1,> 20 µM (inactive)
14,COc1ccc(S(=O)(=O)Nc2ccc3c(c2)C(=O)N([C@H](C)CO)C[C@@H](C)[C@@H](CN(C)Cc2ccc(C(F)(F)F)cc2)OCCCC[C@H](C)O3)cc1,6.77 µM
15,CN(C)c1ccc(NC(=O)c2cnsn2)cc1,6.15 µM

# System: not listed separately
# Test: as above
# Conditions: B cell line, CD40 signaling inhibition reporter; at 0.35 µM (top of the series)
row,Structure (SMILES),"activity change, negative = inhibition"
1,CCc1cnc(N2[C@H](C#N)[C@H](c3ccc(C#CCC4CCCC4)cc3)[C@@H]2CO)s1,4.84% (inactive)

# Same assay, conditions: B cell line, CD40 signaling inhibition reporter; at 1.1 µM (top of the series)
row,Structure (SMILES),"activity change, negative = inhibition"
1,COc1ccc(S(=O)(=O)N(C)C[C@H]2Oc3ccc(NC(=O)Nc4ccc(C(F)(F)F)cc4)cc3C(=O)N([C@@H](C)CO)C[C@@H]2C)cc1,11.5% (inactive)

# Same assay, conditions: B cell line, CD40 signaling inhibition reporter; at 3.5 µM (top of the series)
row,Structure (SMILES),"activity change, negative = inhibition"
1,C[C@]12CC[C@H](O)C[C@H]1CC[C@@H]1[C@@H]2CC[C@]2(C)[C@@H](c3ccc(=O)oc3)CC[C@]12O,1.4% (inactive)
2,N#C[C@H]1[C@H](c2ccc(C#CC3CCCCC3)cc2)[C@@H](CO)N1C(=O)Nc1ccc(F)cc1,-2.23% (inactive)
3,COc1ccc(-c2cnc3c(c2)C(=O)N([C@H](C)CO)C[C@@H](C)[C@@H](CN(C)C(=O)Nc2c(C)noc2C)O3)cc1,-1.25% (inactive)
4,O=S(=O)(c1cccc2cnccc12)N1CCNCC1,-9.07% (inactive)
5,N#C[C@@H]1[C@@H](c2ccccc2-c2ccccc2)[C@@H](CO)N1C(=O)NC1CCCC1,5.58% (inactive)
6,C[C@@H]1CN([C@H](C)CO)C(=O)Cc2cc(NC(=O)Cc3cn(C)c4ccccc34)ccc2O[C@H]1CN(C)Cc1ccc(C(F)(F)F)cc1,0.703% (inactive)
7,Cc1noc(C)c1S(=O)(=O)Nc1ccc2c(c1)C(=O)N([C@H](C)CO)C[C@H](C)[C@@H](CN(C)C(=O)Nc1cccc3ccccc13)OCCCC[C@H](C)O2,-1% (inactive)

# Same assay, conditions: B cell line, CD40 signaling inhibition reporter; at 10 µM (top of the series)
row,Structure (SMILES),"activity change, negative = inhibition"
1,Cc1ccc2c(c1)C(O)(CC(=O)/C=C/C=C/c1ccccc1)C(=O)N2 (centres undefined),-5.49% (inactive)
2,C[C@@H]1CN([C@H](C)CO)C(=O)c2c(c3ccccc3n2C)-c2ccccc2CO[C@H]1CN(C)C(=O)Nc1ccccc1C(F)(F)F,-0.491% (inactive)
3,COc1ccc(CN2CC3(CN(S(=O)(=O)c4ccc(C)cc4)C3)c3c([nH]c4cc(OC)ccc34)[C@H]2CO)cc1,-1.27% (inactive)
4,CCCCc1nc2ccccc2[nH]1,2.81% (inactive)
5,CCN1C(=O)C(CC(=O)Nc2ccc(OC)cc2)N(CCc2ccc(F)cc2)C1=S (centres undefined),-3.22% (inactive)
6,Cc1c(C(=O)c2cccc3ccccc23)c2cccc3c2n1[C@H](CN1CCOCC1)CO3,-18.3% (inactive)
7,C[C@@H]1CN([C@H](C)CO)C(=O)c2c(c3ccccc3n2C)-c2ccccc2CO[C@H]1CN(C)C(=O)c1cc(Cl)cc(Cl)c1,-4.87% (inactive)
8,CCCCn1c(NC(=O)c2ccc(Br)o2)c(S(=O)(=O)c2ccccc2)c2nc3ccccc3nc21,6.39% (inactive)
9,CC12CC[C@H]3[C@@H](CCC4(O)C[C@H](O)CCC34/C=N/NC(=O)Cc3ccccc3)C1(O)CCC2C1=CC(=O)OC1 (some centres undefined),5.75% (inactive)
10,Nc1cccc2nc3ccccc3cc12,22.5% (inactive)
11,CC(C)Cc1ccc(C(C)/C=C2/CCC(CN3CCCCC3)C2=O)cc1 (centres undefined),-18.1% (inactive)
12,O=C(CNCCO)N1N=C(c2cccs2)CC1c1cccs1 (centres undefined),12.3% (inactive)
13,C(=Cc1c[nH]c2ccccc12)c1nccc2ccccc12,74.5% (inactive)
14,Cc1ccc(-c2cc(C(=O)N3CCCC(C(F)(F)F)C3)c3ccccc3n2)o1 (centres undefined),16.7% (inactive)
